Reference: patent EP2998295A1, “Aryl substituted naphthyl sulfonamide derivatives as keap-1 modulators for the treatment of diabetes, obesity, dyslipidemia and related disorders” (SANOFI, priority 2014, dated 2016)
Like-named read-outs stand apart in the source and are kept apart here.

Molecular target: T1, human Keap1 kelch domain (amino acids Ala321 -Thr609) (Homo sapiens, UniProt Q14145)
T1 construct: human Keap1 kelch domain (amino acids Ala321 -Thr609)
Experiment: Keap1-Nrf2 peptide binding assay (fluorescence polarisation)
Details: Keap1 kelch domain 20 nM, fluorescently labeled Nrf2 peptide 50 nM
Method: A fluorescence polarisation assay was used to measure binding of the human Keap1 kelch domain (amino acids Ala321 -Thr609) to a fluorescently labeled peptide containing a Keap1 binding site of human Nrf2 (Alexa633-AFFAQLQLDEETGEFL; JPT Technologies, Berlin, Germany). Two microliters of test compound in reaction buffer (phosphate-buffered saline, 2 mM DL-dithiothreitol, 0.015 % (v/v) Brij-35) containing 6 % (v/v) DMSO were mixed with two microliters of the Keap1 kelch domain in reaction buffer in a black 384-well small volume microtiter plate and incubated at ambient temperature for 15 minutes. Thereafter, two microliters were added of the fluorescently labeled Nrf2 peptide in reaction buffer, and the mixture was incubated for a further 30 minutes at ambient temperature. Final concentrations of the Keap1 kelch domain and the fluorescently labeled Nrf2 peptide were 20 nM and 50 nM, respectively.
Fluorescence polarization (FP) was measured at excitation and emission wavelengths of 635 nm and 660 nm, respectively. Positive controls for binding (two microliters of reaction buffer containing 6 % (v/v) DMSO instead of test compound in the same buffer) and negative controls (as positive controls, but without Keap1 kelch domain) were included on each microtiter plate. Data were expressed as percent-inhibition values: percent inhibition = 100⋅(1(|FPcompound-FPnegative control|)/(|FPpositive control-FPnegative control|)) [formula]
IC50 values were determined by testing different compound concentrations and fitting the resulting percent-inhibition values to the following equation using XLFit4: percent inhibition = A + (B-A)/(1 + (((IC50)/([Compound])))^D) [formula]
Parameter A was set to zero, pre-fit values for parameters B and D were set to 100 and 1, respectively.

T1 sequence (Q14145 321-609): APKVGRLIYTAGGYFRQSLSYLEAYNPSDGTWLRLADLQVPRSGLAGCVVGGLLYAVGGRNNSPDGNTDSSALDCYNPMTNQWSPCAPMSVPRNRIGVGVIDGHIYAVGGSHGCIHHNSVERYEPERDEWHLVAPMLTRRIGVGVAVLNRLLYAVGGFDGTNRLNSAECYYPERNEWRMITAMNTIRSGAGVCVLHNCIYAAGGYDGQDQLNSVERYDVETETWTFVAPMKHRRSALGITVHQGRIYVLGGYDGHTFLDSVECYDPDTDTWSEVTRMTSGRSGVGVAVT

Row | SMILES | IC50 (read-out: IC50) [nM] | IC50 [nM]
1 | Cc1cc(C)c(C)c(S(=O)(=O)Nc2cc(-c3ccc(C(=O)O)cc3)cc3ccccc23)c1C [Example 1, 4-[4-[(2,3,5,6-tetramethylphenyl)sulfonylamino]-2-naphthyl]benzoic acid] |  | 2500
2 | CC(=O)Nc1cc(C(=O)O)cc(-c2cc(NS(=O)(=O)c3c(C)c(C)cc(C)c3C)c3ccccc3c2)c1 [Example 9, 3-acetamido-5-[4-[(2,3,5,6-tetramethylphenyl)sulfonylamino]-2-naphthyl]benzoic acid] |  | 400
3 | Cc1cc(C)c(C)c(S(=O)(=O)Nc2cc(-c3ccc(C(=O)O)s3)cc3ccccc23)c1C [Example 12, 5-[4-[(2,3,5,6-tetramethylphenyl)sulfonylamino]-2-naphthyl]thiophene-2-carboxylic acid] | 12000 | 
4 | Cc1cc(C)c(C)c(S(=O)(=O)Nc2cc(-c3cc(C(=O)O)n(C)n3)cc3ccccc23)c1C [Example 11, 2-methyl-5-[4-[(2,3,5,6-tetramethylphenyl)sulfonylamino]-2-naphthyl]pyrazole-3-carboxylic acid] | 5700 | 
5 | Cc1cc(C)c(C)c(S(=O)(=O)Nc2cc(-c3cccc(C(=O)O)c3)cc3ccccc23)c1C [Example 4, 3-[4-[(2,3,5,6-tetramethylphenyl)sulfonylamino]-2-naphthyl]benzoic acid] |  | 1500

Now from value to compound, other results behind:

Row | IC50 (read-out: IC50) [nM] | SMILES | IC50 [nM]
6 | 5600 | Cc1cc(C)c(C)c(S(=O)(=O)Nc2cc(-c3cccc(C(=O)O)c3F)cc3ccccc23)c1C [Example 6, 2-fluoro-3-[4-[(2,3,5,6-tetramethylphenyl)sulfonylamino]-2-naphthyl]benzoic acid] | 
7 | 3300 | Cc1cc(C)c(C)c(S(=O)(=O)Nc2cc(-c3cc(Cl)cc(C(=O)O)c3)cc3ccccc23)c1C [Example 7, 3-chloro-5-[4-[(2,3,5,6-tetramethylphenyl)sulfonylamino]-2-naphthyl]benzoic acid] | 
8 | 1800 | Cc1cc(C)c(C)c(S(=O)(=O)Nc2cc(-c3ccc(F)c(C(=O)O)c3)cc3ccccc23)c1C [Example 10, 2-fluoro-5-[4-[(2,3,5,6-tetramethylphenyl)sulfonylamino]-2-naphthyl]benzoic acid] | 
9 | 1600 | Cc1cc(C)c(C)c(S(=O)(=O)Nc2cc(-c3ccc(Cl)c(C(=O)O)c3)cc3ccccc23)c1C [Example 8, 2-chloro-5-[4-[(2,3,5,6-tetramethylphenyl)sulfonylamino]-2-naphthyl]benzoic acid] | 
10 | 4100 | Cc1cc(C)c(C)c(S(=O)(=O)Nc2cc(-c3ccc(O)c(C(=O)O)c3)cc3ccccc23)c1C [Example 2, 2-hydroxy-5-[4-[(2,3,5,6-tetramethylphenyl)sulfonylamino]-2-naphthyl]benzoic acid] | 
11 | 2100 | Cc1cc(C)c(C)c(S(=O)(=O)Nc2cc(-c3cc(F)cc(C(=O)O)c3)cc3ccccc23)c1C [Example 5, 3-fluoro-5-[4-[(2,3,5,6-tetramethylphenyl)sulfonylamino]-2-naphthyl]benzoic acid] | 
12 | 1900 | Cc1cc(C)c(C)c(S(=O)(=O)Nc2cc(-c3cncc(C(=O)O)c3)cc3ccccc23)c1C [Example 3, 5-[4-[(2,3,5,6-tetramethylphenyl)sulfonylamino]-2-naphthyl]pyridine-3-carboxylic acid] | 
